Measurements published in patent publication US10473645B2, “Methods for identifying a receptor for a ligand and uses thereof” (UNIVERSITE DE GENEVE, priority 2014, dated 2019).

Assays:
OR67c [1] = target: T1, OR67c (Drosophila melanogaster, UniProt Q9VT90); conditions: Hallem and Carlson, 2006; cited from earlier work
OR67c [2] = target: T1, OR67c; assay: Drosophila OR transcript level by RT-qPCR after odorant exposure; assay type: in vivo, Drosphila melanogaster; design: from tissue; host or cells: olfactory neurons of living W1118 flies (heads / antennae collected for RNA); conditions: 5% odorant in DMSO, 5 hours, fly heads
Method: (§1) Drosophila (W1118) were collected between 0 and 14 hours after hatching. Males and females were exposed separately.
(§2) For flies, after exposure, vials containing the animals were placed upside down in a −80° C. freezer for five minutes, then kept in a −20° C. freezer until dissection. Whole heads were removed by hand and placed in a screw-cap tube containing 1 ml of Trizol (Ambion) and a 0.5 cm diameter steel ball, and kept on ice. Samples were homogenized using four runs of 15 s at 6 m/s on a FastPrep®-24 instrument (MP Biomedicals).
(§3) Samples were cooled on ice between each run. RNA extraction followed the Trizol protocol according to the manufacturer instructions, and using 5 μg of RNase-free glycogen as carrier for RNA precipitation. The RNA pellet was resuspended in 20 μl of RNase-free water and a DNAse treatment (Life Technologies Ambion DNase I®) was performed.
(§4) 24 hours-old Drosphila melanogaster flies were kept in plastic tubes and exposed to either 5% ethyl lactate diluted in DMSO or to 5% geranyl acetate diluted in DMSO. The odorants were spotted on papers that were introduced into the plastic tubes. 10 flies were used per condition (8 independent extracts per condition). 5 hours after exposure heads were collected and RNA extracted.
(§5) The transcript levels for Or67c (a known receptor for ethyl lactate) and Or82a (a known receptor for geranyl acetate) were evaluated by RT-qPCR.

OR82a [3] = target: T2, OR82a (Drosophila melanogaster, UniProt P82986); conditions: Hallem and Carlson, 2006; cited from earlier work
OR82a [4] = target: T2, OR82a; assay: Drosophila OR transcript level by RT-qPCR after odorant exposure; assay type: in vivo, Drosphila melanogaster; design: from tissue; host or cells: olfactory neurons of living W1118 flies (heads / antennae collected for RNA); conditions: 5% odorant in DMSO, 5 hours, fly heads
Method: as §1, §2, §3, §4, §5

T1 sequence (Q9VT90 whole entry): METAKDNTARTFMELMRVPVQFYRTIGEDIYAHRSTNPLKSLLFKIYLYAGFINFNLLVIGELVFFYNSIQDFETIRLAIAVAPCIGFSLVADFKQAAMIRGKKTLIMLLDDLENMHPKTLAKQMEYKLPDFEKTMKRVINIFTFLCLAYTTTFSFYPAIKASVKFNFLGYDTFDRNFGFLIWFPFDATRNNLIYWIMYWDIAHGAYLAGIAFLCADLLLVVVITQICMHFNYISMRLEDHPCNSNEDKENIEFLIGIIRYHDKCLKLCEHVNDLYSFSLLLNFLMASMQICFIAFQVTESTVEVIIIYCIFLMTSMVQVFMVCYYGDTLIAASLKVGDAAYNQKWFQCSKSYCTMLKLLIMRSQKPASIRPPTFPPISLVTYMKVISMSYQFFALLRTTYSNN
T1 sequence (Q9VNB5 whole entry partner): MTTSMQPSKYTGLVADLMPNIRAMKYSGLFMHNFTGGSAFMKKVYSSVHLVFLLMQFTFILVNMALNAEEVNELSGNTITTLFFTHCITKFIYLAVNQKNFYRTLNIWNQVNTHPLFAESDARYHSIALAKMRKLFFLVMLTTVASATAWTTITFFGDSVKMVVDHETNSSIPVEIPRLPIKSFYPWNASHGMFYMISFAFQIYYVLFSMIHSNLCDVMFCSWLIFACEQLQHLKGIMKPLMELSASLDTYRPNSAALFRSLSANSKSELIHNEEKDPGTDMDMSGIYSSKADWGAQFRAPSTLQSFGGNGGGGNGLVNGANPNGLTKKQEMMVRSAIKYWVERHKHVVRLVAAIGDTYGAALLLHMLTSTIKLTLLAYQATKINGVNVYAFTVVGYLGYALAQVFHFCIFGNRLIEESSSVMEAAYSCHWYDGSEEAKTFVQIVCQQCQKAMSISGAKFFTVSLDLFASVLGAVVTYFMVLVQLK
T2 sequence (P82986 whole entry): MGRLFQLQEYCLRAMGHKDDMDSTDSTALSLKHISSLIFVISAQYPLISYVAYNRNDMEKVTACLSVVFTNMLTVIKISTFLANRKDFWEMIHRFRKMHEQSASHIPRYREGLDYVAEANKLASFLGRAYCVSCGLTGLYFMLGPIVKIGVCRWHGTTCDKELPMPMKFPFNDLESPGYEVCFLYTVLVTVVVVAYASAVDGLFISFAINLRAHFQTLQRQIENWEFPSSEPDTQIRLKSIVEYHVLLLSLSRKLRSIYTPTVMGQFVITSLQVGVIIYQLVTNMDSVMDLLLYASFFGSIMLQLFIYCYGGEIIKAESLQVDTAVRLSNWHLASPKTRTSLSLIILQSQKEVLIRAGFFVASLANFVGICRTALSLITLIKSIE
T2 sequence (Q9VNB5 whole entry partner): as the sequence (Q9VNB5 whole entry partner) above

| SMILES | OR67c response previously shown (OR67c [1]) | Or67c mRNA level relative to control ORs (OR67c [2]) | OR82a response previously shown (OR82a [3]) | Or82a mRNA level relative to control ORs (OR82a [4]) |
| --- | --- | --- | --- | --- |
| CCOC(=O)C(C)O (stereo not shown) [ethyl lactate] | respond | 0.7 × | – | – |
| CC(=O)OC/C=C(\C)CCC=C(C)C [geranyl acetate] | – | – | respond | 0.6 × |
